Assay results taken from ChEMBL document CHEMBL1148019, “Heterocyclic substituted cantharidin and norcantharidin analogues--synthesis, protein phosphatase (1 and 2A) inhibition, and anti-cancer activity” (Bioorg Med Chem Lett, 2007).

Key:
Homo sapiens [1] = organism: Homo sapiens; assay: Inhibition of Protein phosphatase 1 at 100 uM
Homo sapiens [2] = organism: Homo sapiens; assay: Inhibition of Protein phosphatase 2A at 100 uM
HT-29 [3] = assay: Cytotoxicity against human HT29 cells at 100 uM; assay type: functional
SW480 [4] = assay: Cytotoxicity against human SW480 cells at 100 uM; assay type: functional
MCF7 [5] = assay: Cytotoxicity against human MCF7 cells at 100 uM; assay type: functional
A2780 [6] = assay: Cytotoxicity against human A2780 cells at 100 uM; assay type: functional
NCI-H460 [7] = assay: Cytotoxicity against human H460 cells at 100 uM; assay type: functional
A-431 [8] = assay: Cytotoxicity against human A431 cells at 100 uM; assay type: functional
DU-145 [9] = assay: Cytotoxicity against human DU145 cells at 100 uM; assay type: functional
[10] = Cytotoxicity against human BE2-C cells at 100 uM; assay type: functional; conditions: BE(2)-C
[11] = Cytotoxicity against human SJ-G2 cells at 100 uM; assay type: functional
[12] = Inhibition of Protein phosphatase 1; parameters: species or system Homo sapiens
[13] = Inhibition of Protein phosphatase 2A; parameters: species or system Homo sapiens
HT-29 [14] = assay: Cytotoxicity against human HT29 cells; assay type: functional
SW480 [15] = assay: Cytotoxicity against human SW480 cells; assay type: functional
MCF7 [16] = assay: Cytotoxicity against human MCF7 cells; assay type: functional
A2780 [17] = assay: Cytotoxicity against human A2780 cells; assay type: functional
NCI-H460 [18] = assay: Cytotoxicity against human H460 cells; assay type: functional
A-431 [19] = assay: Cytotoxicity against human A431 cells; assay type: functional
DU-145 [20] = assay: Cytotoxicity against human DU145 cells; assay type: functional
[21] = Cytotoxicity against human BE2-C cells; assay type: functional; conditions: BE(2)-C
[22] = Cytotoxicity against human SJ-G2 cells; assay type: functional

SMILES	IC50 [12]	IC50 [13]	inhibition at 100 µM (HT-29 [3])	inhibition at 100 µM (SW480 [4])	inhibition at 100 µM (MCF7 [5])	inhibition at 100 µM (A2780 [6])	inhibition at 100 µM (NCI-H460 [7])	inhibition at 100 µM (A-431 [8])	inhibition at 100 µM (DU-145 [9])	inhibition at 100 µM [10]	inhibition at 100 µM [11]	GI50 (HT-29 [14])	GI50 (SW480 [15])	GI50 (MCF7 [16])	GI50 (A2780 [17])	GI50 (NCI-H460 [18])	GI50 (A-431 [19])	GI50 (DU-145 [20])	GI50 [21]	GI50 [22]	further results
O=C(NCCc1cnc[nH]1)NC(=O)C1C(C(=O)O)[C@@H]2CC[C@H]1O2 (stereo partly specified)	–	–	21%	33%	17%	20%	25%	32%	14%	23%	27%	–	–	–	–	–	–	–	–	–	inhibition (Homo sapiens [1]): 35%; inhibition (Homo sapiens [2]): 56%
C[C@]1(C(=O)O)[C@@H]2CC[C@@H](O2)[C@@]1(C)C(=O)NC(=O)N1CCOCC1	5.9 µM	0.79 µM	–	–	–	–	–	–	–	–	–	2.8 µM	3.9 µM	5.8 µM	4.9 µM	3.3 µM	2.9 µM	1.7 µM	2.5 µM	2.1 µM	–
C[C@@]12C(=O)OC(=O)[C@]1(C)[C@H]1CC[C@@H]2O1 [CANTHARIDIN]	11 µM	1.2 µM	–	–	–	–	–	–	–	–	–	3.3 µM	4.6 µM	7 µM	5.8 µM	4 µM	3.4 µM	2.4 µM	4.9 µM	3 µM	–
O=C(NC(=O)Nc1ccc(N2CCOCC2)cc1)NC(=O)C1C(C(=O)O)[C@@H]2CC[C@H]1O2 (stereo partly specified)	6.5 µM	7.9 µM	23%	29%	20%	18%	19%	21%	17%	13%	21%	–	–	–	–	–	–	–	–	–	–
O=C1OC(=O)[C@H]2[C@@H]1[C@@H]1CC[C@H]2O1	9 µM	3 µM	–	–	–	–	–	–	–	–	–	48 µM	35 µM	64 µM	59 µM	45 µM	33 µM	3 µM	56 µM	35 µM	–
O=C(NCCN1CCOCC1)NC(=O)C1C(C(=O)O)[C@@H]2CC[C@H]1O2 (stereo partly specified)	31 µM	43 µM	37%	14%	7.5%	14%	10%	23%	17%	26%	19%	–	–	–	–	–	–	–	–	–	–
